The values below come from patent EP0080682A1, “Bisisoquinolinium compound, pharmaceutical compositions and synthesis” (THE WELLCOME FOUNDATION LIMITED, priority 1981, dated 1983).

Like-named read-outs stand apart in the source and are kept apart here.

Assay [1] relates to isometric twitch of the tibialis anterior muscle. In words: Neuromuscular block after intravenous administration: isometric twitch of the tibialis anterior muscle in response to peroneal nerve stimulation, Rhesus monkeys. The conditions noted are these: Rhesus Monkey. It counts as in vivo. The source says:
(§1) Trans, trans-2,2'-(trimethylenebis(carbonyloxytri- methylene))bis(1,2,3,4-tetrahydro-6,7,8-trimethoxy-2-methyl-1-(3,4,5-trimethoxybenzyl)isoquinolinium) dichloride (prepared as in Example 3) was examined by intravenous administration to cats and Rhesus monkeys, maintained by artificial ventilation and prepared for recording the isometric twitch of the tibialis anterior muscle in response to stimulation of peroneal nerve.

Assay [2] has the same test system. In words: Neuromuscular block after intravenous administration: isometric twitch of the tibialis anterior muscle in response to peroneal nerve stimulation, cats. The note with it: Cat. It counts as in vivo.
From the text: as §1

The conditions of assay [3]: cited from earlier work.
[4] abbreviates: intravenous, time from injection to 95% recovery.

Turning to `COc1cc(CC2c3c(cc(OC)c(OC)c3OC)CC[N+]2(C)CCCOC(=O)CCCC(=O)OCCC[N+]2(C)CCc3cc(OC)c(OC)c(OC)c3C2Cc2cc(OC)c(OC)c(OC)c2)cc(OC)c1OC` (stereo not drawn) [Example 1, trans, trans-2,2'-(trimethylenebis(carbonyloxytrimethy-lene))bis(1,2,3,4-tetrahydro-6,7,8-trimethoxy-2-methyl-1-(3,4,5-trimethoxybenzyl)isoquinolinium) dichloride], the ED95 came to 0.05 mg/kg in assay [1] (Macaca mulatta, intravenous administration, artificial ventilation, 4 animals) and 0.03 mg/kg in assay [2] (Felis catus, intravenous administration, artificial ventilation, 2 animals). Moreover, the figures for the Duration result in assay [1] (setting [4]) and in assay [2] (setting [4]) were “≃15^+ Minutes” and “≃25 Minutes”, respectively.

As to `COc1cc2c3cc1Oc1cc(ccc1O)C[C@@H]1c4c(cc(OC)c(O)c4Oc4ccc(cc4)C[C@@H]3N(C)CC2)CC[N+]1(C)C` [d-tubocurarine], the “dose of agents most widely used clinically” value in assay [3] (clinical use, compared with intravenous paralysing dose of compounds of formula (I)) was 0.4 to 0.6 mg/kg.

For the compound `CC(=O)O[C@H]1C[C@@H]2CC[C@@H]3[C@H](CC[C@@]4(C)[C@H]3C[C@H]([N+]3(C)CCCCC3)[C@@H]4OC(C)=O)[C@@]2(C)C[C@@H]1[N+]1(C)CCCCC1` [pancuronium], the “dose of agents most widely used clinically” value in assay [3] (in vivo) was 0.06 to 0.08 mg/kg.
